From ChEMBL document CHEMBL1201862, “PubChem BioAssay data set” (2004)
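In this assay, cells in 96-well plates receive the compound at five concentrations for 48 hours. Endpoints are linearly interpolated between the surrounding concentrations. Abbreviation: GI50, concentration required for 50% inhibition of growth.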 The source made the active and inactive calls. No stated cut-off is given here; in the data, active = GI50 up to about 1.1 µM and inactive = higher.

Legend:
Test in all cases: NCI-60 cell line screen, 48 h
786-0 = tested on: 786-0
A498 = tested on: A498
BT-549 = tested on: BT-549
HCT-116 = tested on: HCT-116
HOP-62 = tested on: HOP-62
HT-29 = tested on: HT-29
K562 = tested on: K562
MCF7 = tested on: MCF7
MDA-N = tested on: MDA-N
MOLT-4 = tested on: MOLT-4
NCI/ADR-RES = tested on: NCI/ADR-RES
OVCAR-3 = tested on: OVCAR-3
OVCAR-4 = tested on: OVCAR-4
OVCAR-5 = tested on: OVCAR-5
PC-3 = tested on: PC-3
SR = tested on: SR
SW-620 = tested on: SW-620
T47D = tested on: T47D
U-251 = tested on: U-251
UO-31 = tested on: UO-31

Row | SMILES | GI50 (786-0) | GI50 (A498) | GI50 (BT-549) | GI50 (HCT-116) | GI50 (HOP-62) | GI50 (HT-29) | GI50 (K562) | GI50 (MCF7) | GI50 (MDA-N) | GI50 (MOLT-4) | GI50 (NCI/ADR-RES) | GI50 (OVCAR-3) | GI50 (OVCAR-4) | GI50 (OVCAR-5) | GI50 (PC-3) | GI50 (SR) | GI50 (SW-620) | GI50 (T47D) | GI50 (U-251) | GI50 (UO-31)
1 | CC(C)(C)c1cc(C(=O)/C=C/c2ccc(O)c(O)c2O)cc(C(C)(C)C)c1O | 4.43 µM (inactive) | 14 µM (inactive) | 7.4 µM (inactive) | 2.73 µM (inactive) | 7.08 µM (inactive) | 11.7 µM (inactive) | 2.81 µM (inactive) | 4.6 µM (inactive) | 4.38 µM (inactive) | 2.49 µM (inactive) | 1.69 µM (inactive) | 3.52 µM (inactive) | 2.77 µM (inactive) | 17.5 µM (inactive) | 3.67 µM (inactive) | 1.45 µM (inactive) | 2.58 µM (inactive) | 2 µM (inactive) | 2.79 µM (inactive) | 2.67 µM (inactive)
2 | O=C1/C(=N\NC(=S)NC2CCCCC2)c2cc([N+](=O)[O-])ccc2N1CN1CCOCC1 | 5.52 µM (inactive) | 4.8 µM (inactive) | 4.86 µM (inactive) | 3.57 µM (inactive) | 10.3 µM (inactive) | 4.48 µM (inactive) | 3.61 µM (inactive) | 4.06 µM (inactive) | 6.08 µM (inactive) | 1.71 µM (inactive) | 3.26 µM (inactive) | 5.86 µM (inactive) | 4.62 µM (inactive) | 11.3 µM (inactive) | 4.7 µM (inactive) | 1.14 µM (inactive) | 6.25 µM (inactive) | 2.64 µM (inactive) | 4.52 µM (inactive) | 6.31 µM (inactive)
3 | CCOc1cc2c(OCc3ccccc3)cc3c4cc(OC)c(OC)cc4c[n+](C)c3c2cc1OC | 2.74 µM (inactive) | 22.2 µM (inactive) | 0.789 µM (active) | 1.56 µM (inactive) | 2.99 µM (inactive) | 2.66 µM (inactive) | 1.18 µM (inactive) | 0.671 µM (active) | 0.857 µM (active) | 0.818 µM (active) | > 100 µM (inactive) | 1.06 µM (active) | 2.04 µM (inactive) | 7.13 µM (inactive) | 1.66 µM (inactive) | 0.631 µM (active) | 1.47 µM (inactive) | 0.446 µM (active) | 0.601 µM (active) | 25.3 µM (inactive)
